From patent US20220031680A1, “Donecopride As Neuroprotective Agent In the Treatment of Neurodegenerative Diseases” (priority 2018, published 2022) come the findings set out here.

The subject of test [1] is rat primary hippocampal neurons injured with Aβ 1-42. The test can be described thus: Survival and neurite network of MAP-2 neurons in primary hippocampal neurons injured with Aβ1-42. It is filed as cell-based. As to the method:
Rat hippocampal neurons were cultured as described by Callizot et al. (2013) J. Neurosci. Res. 91706-716. Pregnant female rats of 17 days gestation (Rats Wistar; Janvier Labs France) were killed using a deep anesthesia with CO2 chamber followed by a cervical dislocation. Then, fetuses were removed from the uterus and immediately placed in ice-cold L15 Leibovitz medium with a 2% penicillin (10,000 U/ml) and streptomycin (10 mg/ml) solution (PS) and 1% bovine serum albumin (BSA). Hippocampal neurons were treated for 20 min at 37° C. with a trypsin-EDTA solution at a final concentration of 0.05% trypsin and 0.02% EDTA. The dissociation was stopped by adding Dulbecco's modified Eagle's medium (DMEM) with 4.5 g/l of glucose, containing DNAse I grade II (final concentration 0.5 mg/ml) and 10% fetal calf serum (FCS). Cells were mechanically dissociated by three forced passages through the tip of a 10-ml pipette and then centrifuged at 515×g for 10 min at 4° C. The supernatant was discarded, and the pellet was resuspended in a defined culture medium consisting of Neurobasal medium with a 2% solution of B27 supplement, 2 mmol/l of L-glutamine, 2% of PS solution, and 10 ng/ml of brain-derived neurotrophic factor (BDNF). Viable cells were counted in a Neubauer cytometer, using the trypan blue exclusion test. Cells were seeded at a density of 20,000 per well in 96-well plates precoated with poly-L-lysine and cultured at 37° C. in an air (95%)-CO2 (5%) incubator. The medium was changed every 2 days.
(§1) The hippocampal neurons were exposed with Aβ solutions (see below) after 17 days of culture. The Aβ1-42 preparation was done following the procedure described by Callizot et al. (2013) J. Neurosci. Res. 91706-716. Briefly, Aβ1-42 peptide was dissolved in the defined culture medium mentioned above, at an initial concentration of 40 μM. This solution was gently agitated for 3 days at 37° C. in the dark and immediately used after being properly diluted in culture medium to the concentrations used (20 μM (plate 1) or 2.5 μM (plate 2) corresponding to 2 μM or 0.25 μM of oligomers (AβO) respectively).
(§2) Donecopride fumarate was solved in culture medium and preincubated 1 h before Aβ application. Aβ1-42 preparation was added to a final concentration of 20 or 2.5 μM (=2 μM or 0.25 μM of AβO, evaluated by automatic Western Blot) diluted in control medium in presence of Donecopride.
Donecopride fumarate (Donecopride) was tested on one culture in a 96 well plate (6 wells per conditions). The compound was preincubated one hour before Aβ application. The following conditions were assessed:
(§3) 24 hours after intoxication, the hippocampal neurons were fixed by a cold solution of ethanol (95%) and acetic acid (5%) for 5 min at −20° C. After permeabilization with 0.1% of saponin, cells were incubated for 2 h with:
a) chicken polyclonal antibody anti microtubule-associated-protein 2 (MAP-2), diluted at 1/1000 in PBS containing 1% fetal calf serum and 0.1% of saponin (this antibody allows the specific staining of neuronal cell bodies and neurites; and allow the study of neuronal cell death and neurite network).
(§4) For each condition, 30 pictures (representative of the whole well area) per well were taken using ImageXpress (Molecular Devices) at 20× magnification. All images were taken with the same acquisition parameters. Analyses were performed automatically by using Custom Module Editor (Molecular Devices).
(§5) The following endpoints were assessed: • Total number of neurons (neuron survival, number of MAP-2 positive neurons) • Neurite network (in μm of MAP-2 positive neurons) • area of tau in neurons (μm^2, overlapping with MAP-2 positive neurons).
All values are expressed as mean+/−SEM. Statistical analysis was performed by one-way ANOVA, followed by PLSD Fisher's test, p<0.05 were considered significant.
Rat hippocampal neurons were cultured as described by Callizot et al. (2013) J. Neurosci. Res. 91:706-716. […]

In a further test the test system is Tau (AT100). The test can be described thus: Phosphorylation of Tau (AT100) in MAP-2 hippocampal neurons injured with Aβ1-42. It is filed as cell-based, rat. The settings on record: Aβ1-42 injured hippocampal neurons; for effect on Tau hyperphosphorylation: Example 4. As to the method:
as §1, §2, §3
b) mouse monoclonal antibody anti-phospho Tau (AT100) at dilution of 1/400 in PBS containing 1% fetal calf serum and 0.1% of saponin.
as §4, §5
(§6) Injury: The hippocampal neurons were exposed with Aβ solutions (see below) after 17 days of culture. The Aβ1-42 preparation was done following the procedure described by Callizot et al. (2013) J. Neurosci. Res. 91:706-716. The batch number of the Aβ1-42 used in this study contains 10% of oligomers (quantification by WB as performed in Combes et al. (2015) J. Neurosci. Res. 93:633-643). Briefly, Aβ1-42 peptide was dissolved in the defined culture medium mentioned above, at an initial concentration of 40 μmol/1. This solution was gently agitated for 3 days at 37° C. in the dark and immediately used after being properly diluted in culture medium to the concentrations used (20 μmol/l or 2.5 μmol/l corresponding to 2 μmol/l or 0.25 μmol/l of oligomers (AβO) respectively). Aβ1-42 preparation was added to a final concentration of 20 or 2.5 μmol/l (respectively 2 μmol/l or 0.25 μmol/l of AβO, determined by automatic WB) diluted in control medium in presence of the compounds.
Immunostaining: MAP-2/AT100—After fixation and permeabilization, cells were incubated for 2 hours with: • a chicken polyclonal antibody anti microtubule-associated-protein 2 (MAP-2) at dilution of 1/1000 in PBS containing 1% fetal calf serum and 0.1% saponin (this antibody stains specifically cell bodies and neurites, allowing study of neuronal cell death and neurite network); and • a mouse monoclonal antibody anti-phospho Tau (AT100) at dilution of 1/100 in PBS containing 1% fetal calf serum and 0.1% saponin.
For each condition, 30 pictures (representative of the whole well area) per well were taken using ImageXpress® (Molecular Devices) with 20× magnification. All images were generated using the same acquisition parameters. From images, analyses were directly and automatically performed by Custom Module Editor® (Molecular Devices). The following read-outs were investigated: • Total number of neurons (neuron survival, number of MAP-2 positive neurons) • Neurite network (in μm of MAP-2 positive neurons) • Area of AT100 (μm^2, overlapping with MAP-2 positive neurons).

Test [2] concerns rat primary hippocampal neurons injured with Aβ 1-42. The test can be described thus: Number of synapses (PSD95/SYN overlap) in primary hippocampal neurons injured with Aβ1-42. It is filed as cell-based. As to the method:
as §1, §2, §3
a) mouse monoclonal antibody anti post synaptic density 95 kDa (PSD95) at a dilution of 1/100 in PBS containing 1% fetal calf serum and 0.1% of saponin.
b) Rabbit polyclonal antibody anti-synaptophysin (SYN) at the dilution of 1/100 in PBS containing 1% fetal calf serum and 0.1% of saponin.
For each condition, 40 pictures per well were taken using ImageXpress (Molecular Devices) with 40× magnification. All images were taken with the same acquisition parameters.
Synapses evaluation was performed automatically by using Custom module editor (Molecular Devices).
The following endpoints were assessed: • Total number of synapses (overlapping between PSD95/SYN).
To assess the formation of synapses, the distribution of PSD-95, a post-synaptic marker, and synaptophysin, a pre-synaptic marker, was studied. A structure positive for both PD-95 and synaptophysin staining was considered as a synapse.
as §6
Immunostaining: PSD95 and SYN—After fixation and permeabilization, cells were incubated for 2 hours with: • mouse monoclonal antibody anti post synaptic density 95 kDa (PSD95) at dilution of 1/200 in PBS containing 1% fetal calf serum and 0.1% saponin; • rabbit polyclonal antibody anti-synaptophysin (SYN) at the dilution of 1/100 in PBS containing 1% fetal calf serum and 0.1% saponin.
For each condition, 40 pictures per well were taken using ImageXpress (Molecular Devices) with 40× magnification. All images were taken with the same conditions. Synapses evaluation were performed automatically by using Custom Module Editor® (Molecular Devices). The following endpoints were assessed: • Number of synapses (overlapping between PSD95/SYN)

Where [3] appears, read: Aβ1-42 injured hippocampal neurons, Example 4.

Each structure is given as a SMILES string.

Turning to `COc1cc(N)c(Cl)cc1C(=O)CCC1CCN(CC2CCNCC2)CC1` [MR31176], the “neuroprotective effect (survival, neurite and synaptic network)” value in test [1] (setting [3]) is “neuroprotective effect at high concentrations”. Further, the “effect on Tau hyperphosphorylation” value in the test with Tau (AT100) is reported as “significant effect on Tau hyperphosphorylation was also observed at high concentration”.
In the case of `COc1cc(N)c(Cl)cc1C(=O)CCC1CCN(CC2CCCCCC2)CC1` [MR31192], the “doses with neuroprotective effect on survival” value in test [1] (Aβ1-42 injured hippocampal neurons (FIG. 5A)) lay in the range of 1 to 5 nM. For the same compound, the “neurite length normalized by number of neurons (neuritic growth)” value in test [1] (Aβ1-42 injured hippocampal neurons (FIG. 5C)) is on record as “neurotrophic effect”. Moreover, in test [1] (setting [3]), the “effect on neurite network” value is on record as “very large effect was also observed on neurite network at every tested dose”; the “neuroprotective effect (survival, neurite and synaptic network)” value was “very strong neuroprotective effect at very low doses”. For the same compound, the “concentration up to which active (survival and neurite network)” value in test [1] (Aβ1-42 injured hippocampal neurons, Example 5 (FIG. 9A,B,C)) was not above 500 µM. The “effect on Tau hyperphosphorylation” value in the test with Tau (AT100) was “important effect”. For the same compound, the “concentration with significant reduction of Tau hyperphosphorylation” value in the test on Tau (AT100) (Example 5 (FIG. 9D)) came out at 100 pM. The “doses increasing the number of synapses” value in test [2] (Aβ1-42 injured hippocampal neurons (FIG. 6)) lay in the range of 1 to 5 nM. The “concentration with neuroprotective effect on synapses” value in test [2] (Aβ1-42 injured hippocampal neurons, Example 5 (FIG. 10)) worked out at 500 pM.
